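A five-concentration, 48-hour dose response in 96-well plates underlies each endpoint, interpolated linearly between surrounding concentrations. At the GI50, growth is halved.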 Calls of active or inactive are those of the source. No stated cut-off is given here; in the data, active = GI50 up to about 1.1 µM and inactive = higher.
How the values were obtained:
Test in all cases: growth of human tumour cells (NCI), 48 h
SN12C = test system: SN12C
786-0 = test system: 786-0
HOP-62 = test system: HOP-62
Hs-578T = test system: Hs-578T
SK-MEL-2 = test system: SK-MEL-2
LOX IMVI = test system: LOX IMVI
SF-268 = test system: SF-268
OVCAR-3 = test system: OVCAR-3
A549 = test system: A549
DU-145 = test system: DU-145
A498 = test system: A498
CCRF-CEM = test system: CCRF-CEM
RPMI-8226 = test system: RPMI-8226
NCI-H226 = test system: NCI-H226
HCT-116 = test system: HCT-116
SF-295 = test system: SF-295
UACC-62 = test system: UACC-62
NCI-H23 = test system: NCI-H23
SR = test system: SR
Malme-3M = test system: Malme-3M

Compound | GI50 (SN12C) | GI50 (786-0) | GI50 (HOP-62) | GI50 (Hs-578T) | GI50 (SK-MEL-2) | GI50 (LOX IMVI) | GI50 (SF-268) | GI50 (OVCAR-3) | GI50 (A549) | GI50 (DU-145) | GI50 (A498) | GI50 (CCRF-CEM) | GI50 (RPMI-8226) | GI50 (NCI-H226) | GI50 (HCT-116) | GI50 (SF-295) | GI50 (UACC-62) | GI50 (NCI-H23) | GI50 (SR) | GI50 (Malme-3M)
NCCNc1nc(N2CCCC2)c2nc(Cl)c(NCc3ccccc3)nc2n1 | 1.52 µM (inactive) | 1.77 µM (inactive) | 1.67 µM (inactive) | 2.53 µM (inactive) | 1.79 µM (inactive) | 1.56 µM (inactive) | 1.96 µM (inactive) | 1.68 µM (inactive) | 1.71 µM (inactive) | 1.61 µM (inactive) | 1.83 µM (inactive) | 2.42 µM (inactive) | 1.88 µM (inactive) | 3.15 µM (inactive) | 1.49 µM (inactive) | 1.86 µM (inactive) | 1.75 µM (inactive) | 2.14 µM (inactive) | 1.57 µM (inactive) | 2.07 µM (inactive)
Cn1c2ccccc2c2ccc3c(c21)C(=O)C=CC3=O | 9.93 µM (inactive) | 4.27 µM (inactive) | 28 µM (inactive) | 18.4 µM (inactive) | 15.6 µM (inactive) | 4.18 µM (inactive) | 14.8 µM (inactive) | 7.24 µM (inactive) | 26.2 µM (inactive) | 16 µM (inactive) | > 45.2 µM (inactive) | 0.69 µM (active) | 2.32 µM (inactive) | 20.5 µM (inactive) | 4.29 µM (inactive) | 24.7 µM (inactive) | 12.1 µM (inactive) | 12.7 µM (inactive) | 0.796 µM (active) | 3.39 µM (inactive)
COc1ccc(C[C@H]2NC(=O)/C=C/C[C@@H]([C@H](C)[C@H]3O[C@@H]3c3ccccc3)OC(=O)[C@H](CC(C)C)OC(=O)[C@H](C)CNC2=O)cc1 | 3.94e-05 µM (active) | 1.25e-05 µM (active) | 2.47e-05 µM (active) | 1.01e-05 µM (active) | > 4.42e-05 µM (active) | 1.74e-05 µM (active) | 7.13e-05 µM (active) | 1.58e-05 µM (active) | 3.16e-05 µM (active) | 2.96e-05 µM (active) | 2.15e-05 µM (active) | 1.75e-05 µM (active) | 2.85e-05 µM (active) | > 4.41e-05 µM (active) | 1.57e-05 µM (active) | 1.07e-05 µM (active) | 6.71e-06 µM (active) | 2.54e-05 µM (active) | 3.36e-06 µM (active) | 2.19e-05 µM (active)
Cc1ccc([S+]([O-])(=Nc2ccccc2)C(C(C)C)C(C)(C)Cl)cc1 (stereo not given) | 22.4 µM (inactive) | 24.2 µM (inactive) | > 50 µM (inactive) | 29.6 µM (inactive) | 12.5 µM (inactive) | 25.2 µM (inactive) | 44.4 µM (inactive) | 29.6 µM (inactive) | 16.2 µM (inactive) | > 50 µM (inactive) | 18.5 µM (inactive) | 9.1 µM (inactive) | 14 µM (inactive) | 2.72 µM (inactive) | 16.9 µM (inactive) | 16.3 µM (inactive) | 30.9 µM (inactive) | 9.91 µM (inactive) | 16.1 µM (inactive) | 27.9 µM (inactive)
CC(C(=O)[O-])S(=O)(=O)O.CCc1c2cc(OC)c(OC)cc2cc2c3cc(OC)c(OC)cc3cc[n+]12 | 6.62 µM (inactive) | 36.9 µM (inactive) | 41.7 µM (inactive) | 4.81 µM (inactive) | 25.6 µM (inactive) | 27.5 µM (inactive) | 1.11 µM (active) | 12.4 µM (inactive) | 47.4 µM (inactive) | 14.2 µM (inactive) | 53.1 µM (inactive) | 9.14 µM (inactive) | 25.8 µM (inactive) | 9.73 µM (inactive) | 17.8 µM (inactive) | 67.3 µM (inactive) | 7.91 µM (inactive) | 15.9 µM (inactive) | 13.3 µM (inactive) | 8.79 µM (inactive)
COc1cc(/C=C2/CCS(=O)(=O)c3ccc(C)cc3C2=O)cc(OC)c1OC | 3.66 µM (inactive) | 3.3 µM (inactive) | 6.04 µM (inactive) | 4.73 µM (inactive) | 9.75 µM (inactive) | 2.61 µM (inactive) | 4.49 µM (inactive) | 5.5 µM (inactive) | 4.88 µM (inactive) | 3.48 µM (inactive) | 5.78 µM (inactive) | 2.85 µM (inactive) | 2.65 µM (inactive) | 6.34 µM (inactive) | 2.95 µM (inactive) | 14.1 µM (inactive) | 4.12 µM (inactive) | 3.64 µM (inactive) | 2.32 µM (inactive) | 3.63 µM (inactive)
CCOC(=O)CCC(C(=O)OCC)n1nc2ccc(Nc3c(C)[n+]([O-])c4ccc(Cl)cc4[n+]3[O-])cc2n1 (stereo not given) | 18.9 µM (inactive) | 16.5 µM (inactive) | 17 µM (inactive) | 21.4 µM (inactive) | 20 µM (inactive) | 14.4 µM (inactive) | 12.2 µM (inactive) | 24.9 µM (inactive) | 17.6 µM (inactive) | 20.1 µM (inactive) | 23.6 µM (inactive) | 41.2 µM (inactive) | 44.9 µM (inactive) | 20.3 µM (inactive) | 20.6 µM (inactive) | 16.8 µM (inactive) | 26.6 µM (inactive) | 21.5 µM (inactive) | 34.1 µM (inactive) | 30.1 µM (inactive)
CN1CCN(c2ccc3nc(C4=C(O)C(=O)c5c(nc(CCl)n5C)C4=O)[nH]c3n2)CC1 | 9.98 µM (inactive) | 8.61 µM (inactive) | 9.51 µM (inactive) | 18.7 µM (inactive) | 10 µM (inactive) | 8.15 µM (inactive) | 14.9 µM (inactive) | 10.4 µM (inactive) | 30 µM (inactive) | 10.1 µM (inactive) | 11.5 µM (inactive) | > 50 µM (inactive) | 26 µM (inactive) | 14.7 µM (inactive) | 8.85 µM (inactive) | 16.7 µM (inactive) | 9.89 µM (inactive) | 11.5 µM (inactive) | 31.8 µM (inactive) | 3.66 µM (inactive)
N#Cc1c(NC(=S)Nc2ccc(Cl)cc2)sc2c1CCN(N1CCc3c(sc(NC(=S)Nc4ccc(Cl)cc4)c3C#N)C1)C2 | 39.3 µM (inactive) | 21 µM (inactive) | 16 µM (inactive) | 44.8 µM (inactive) | 20.3 µM (inactive) | 5.62 µM (inactive) | 38.9 µM (inactive) | 74.5 µM (inactive) | 28.5 µM (inactive) | 37.8 µM (inactive) | 15.7 µM (inactive) | 33 µM (inactive) | > 100 µM (inactive) | 16.1 µM (inactive) | 21.6 µM (inactive) | 16.1 µM (inactive) | 10.6 µM (inactive) | 33 µM (inactive) | > 100 µM (inactive) | 55.2 µM (inactive)
Cc1ccc(N2C(=O)CC(=O)N(NC(=O)C(C)Oc3ccccc3C)C2=S)cc1 (stereo not given) | > 100 µM (inactive) | > 100 µM (inactive) | > 100 µM (inactive) | > 100 µM (inactive) | > 100 µM (inactive) | 70.6 µM (inactive) | > 100 µM (inactive) | > 100 µM (inactive) | > 100 µM (inactive) | > 100 µM (inactive) | > 100 µM (inactive) | 1.6 µM (inactive) | > 100 µM (inactive) | > 100 µM (inactive) | > 100 µM (inactive) | > 100 µM (inactive) | > 100 µM (inactive) | > 100 µM (inactive) | 57.1 µM (inactive) | > 100 µM (inactive)
COc1ccc2c(c1)-c1c(c3ccccc3n1CCN1CCCCC1)CC2 | 22.4 µM (inactive) | 16.9 µM (inactive) | 8.79 µM (inactive) | 9.82 µM (inactive) | 5.73 µM (inactive) | 16.3 µM (inactive) | 17.4 µM (inactive) | 6.08 µM (inactive) | 10.6 µM (inactive) | 53.8 µM (inactive) | 34 µM (inactive) | 19.5 µM (inactive) | 11.3 µM (inactive) | 17.2 µM (inactive) | 13.1 µM (inactive) | 5.52 µM (inactive) | 16.3 µM (inactive) | 18.3 µM (inactive) | 6.64 µM (inactive) | 23.4 µM (inactive)
O=c1c2c3c(sc2nc2n1N=CN(c1ccc(Cl)cc1)C2)CCCC3 | > 100 µM (inactive) | 19.3 µM (inactive) | 50 µM (inactive) | 3.93 µM (inactive) | 43.2 µM (inactive) | 36.3 µM (inactive) | 20.8 µM (inactive) | 19.4 µM (inactive) | 38.4 µM (inactive) | 21.3 µM (inactive) | 4.12 µM (inactive) | 17 µM (inactive) | 46.8 µM (inactive) | 42.3 µM (inactive) | 26.9 µM (inactive) | 70.1 µM (inactive) | 56.8 µM (inactive) | > 100 µM (inactive) | 15.7 µM (inactive) | 16.2 µM (inactive)
CC(C)OC(=O)c1ccc(CCC2=CC(=O)C=CC2=O)cc1 | 11.3 µM (inactive) | 4.22 µM (inactive) | 20.3 µM (inactive) | 13 µM (inactive) | 19.1 µM (inactive) | 4.1 µM (inactive) | 13.7 µM (inactive) | 5.18 µM (inactive) | 25.4 µM (inactive) | 15.2 µM (inactive) | 23 µM (inactive) | 0.697 µM (active) | 2.79 µM (inactive) | 15.9 µM (inactive) | 11.8 µM (inactive) | 29.4 µM (inactive) | 14.9 µM (inactive) | 13.2 µM (inactive) | 2.56 µM (inactive) | 6.92 µM (inactive)
COC1=C2C=[N+](C)C3C(=C2C=CC1OC)Cc1cc2c(cc13)OCO2 (stereo not given) | 4.43 µM (inactive) | 11.9 µM (inactive) | 13.9 µM (inactive) | 13.7 µM (inactive) | 15.5 µM (inactive) | 16.3 µM (inactive) | 3.8 µM (inactive) | 3.75 µM (inactive) | 15.8 µM (inactive) | 14.5 µM (inactive) | 43.5 µM (inactive) | 6.37 µM (inactive) | 2.53 µM (inactive) | 15.4 µM (inactive) | 13.8 µM (inactive) | 15.3 µM (inactive) | 7.6 µM (inactive) | 13 µM (inactive) | 0.879 µM (active) | 3.88 µM (inactive)
